Key:
[1] = target: D(2) dopamine receptor (Rattus norvegicus, UniProt P61169); assay: biochemical
[2] = target: D(3) dopamine receptor (Homo sapiens, UniProt P35462)
Description: Antagonistic activity of quinpirole stimulation of mitogenesis in human Dopamine receptor D3 transfected CHO cells

[3] = target: D(3) dopamine receptor (Rattus norvegicus, UniProt P19020); assay: Binding affinity towards rat Dopamine receptor D3 in Sf9 cells expressing in recombinant baculovirus (Bv) using [125I]IABN as radioligand
D(3) dopamine receptor (Rattus norvegicus, UniProt P19020), sequence (P19020 whole entry): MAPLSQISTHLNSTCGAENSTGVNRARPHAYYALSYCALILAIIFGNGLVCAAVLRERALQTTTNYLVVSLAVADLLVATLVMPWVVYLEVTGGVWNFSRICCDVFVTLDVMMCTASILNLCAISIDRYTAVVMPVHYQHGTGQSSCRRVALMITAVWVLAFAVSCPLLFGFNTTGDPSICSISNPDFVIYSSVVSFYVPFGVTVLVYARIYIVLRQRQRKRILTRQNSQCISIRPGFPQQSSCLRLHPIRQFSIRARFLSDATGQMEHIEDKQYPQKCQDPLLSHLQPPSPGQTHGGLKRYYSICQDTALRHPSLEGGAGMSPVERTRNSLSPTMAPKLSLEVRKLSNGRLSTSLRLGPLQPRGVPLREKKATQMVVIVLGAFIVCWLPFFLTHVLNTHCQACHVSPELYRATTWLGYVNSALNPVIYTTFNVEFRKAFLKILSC

D(2) dopamine receptor, sequence (P61169 whole entry): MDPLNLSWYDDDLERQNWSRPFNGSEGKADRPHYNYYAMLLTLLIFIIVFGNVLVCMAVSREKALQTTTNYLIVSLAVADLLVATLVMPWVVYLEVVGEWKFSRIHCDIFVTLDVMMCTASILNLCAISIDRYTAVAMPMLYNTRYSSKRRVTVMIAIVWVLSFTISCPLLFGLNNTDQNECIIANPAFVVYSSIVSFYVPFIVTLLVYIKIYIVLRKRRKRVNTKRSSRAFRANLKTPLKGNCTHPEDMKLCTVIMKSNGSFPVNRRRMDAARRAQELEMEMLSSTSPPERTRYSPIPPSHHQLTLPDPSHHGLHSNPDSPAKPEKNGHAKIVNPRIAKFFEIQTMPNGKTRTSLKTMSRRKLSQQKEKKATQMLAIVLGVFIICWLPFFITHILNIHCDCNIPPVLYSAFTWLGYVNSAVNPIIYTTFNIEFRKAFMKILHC
D(3) dopamine receptor (Homo sapiens, UniProt P35462), sequence (P35462 whole entry): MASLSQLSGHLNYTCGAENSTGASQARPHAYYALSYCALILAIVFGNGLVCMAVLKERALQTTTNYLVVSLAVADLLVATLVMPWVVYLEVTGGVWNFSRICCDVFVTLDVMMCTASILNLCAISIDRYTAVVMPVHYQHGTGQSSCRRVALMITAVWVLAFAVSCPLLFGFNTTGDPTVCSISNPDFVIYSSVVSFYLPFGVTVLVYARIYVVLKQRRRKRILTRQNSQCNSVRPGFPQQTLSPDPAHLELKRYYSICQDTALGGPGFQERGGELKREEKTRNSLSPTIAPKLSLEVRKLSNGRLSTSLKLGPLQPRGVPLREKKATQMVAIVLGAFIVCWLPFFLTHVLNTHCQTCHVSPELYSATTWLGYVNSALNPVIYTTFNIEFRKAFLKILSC

| Structure (SMILES) | Ki [1] | IC50 [2] | Ki [3] |
| --- | --- | --- | --- |
| O=C(NCCCCN1CCN(c2cccc(Cl)c2Cl)CC1)c1cnc2ccccc2n1 | 109 nM | 26.9 nM | 1.9 nM |
| O=C(NCCCCN1CCN(c2cccc(Cl)c2Cl)CC1)c1ccc2c(c1)Cc1ccccc1-2 | 911 nM |  | 1.1 nM |
| O=C(NCCCCN1CCN(c2cccc(Cl)c2Cl)CC1)c1cccc2c1-c1ccccc1C2=O | 150 nM |  | 1.6 nM |
| O=C(NCCCCN1CCN(c2cccc(Cl)c2Cl)CC1)c1ccc(I)cc1 | 87.5 nM |  | 1.4 nM |
| O=C(NCCCN1CCN(c2ccccc2)CC1)C1c2ccccc2-c2ccccc21 | 1020 nM |  | 84.5 nM |
| O=C(NC/C=C/CN1CCN(c2cccc(Cl)c2Cl)CC1)c1ccc2c(c1)Cc1ccccc1-2 | 198 nM |  | 5.9 nM |
| O=C(NC/C=C\CN1CCN(c2cccc(Cl)c2Cl)CC1)c1ccc2c(c1)Cc1ccccc1-2 | 87.3 nM |  | 6 nM |
| O=C(NC/C=C\CN1CCN(c2cccc(Cl)c2Cl)CC1)c1cccc2c1-c1ccccc1C2 | 10.7 nM |  | 6.5 nM |
| O=C(NCCCCN1CCN(c2cccc(Cl)c2Cl)CC1)c1cccc2c1-c1ccccc1C2 | 134 nM |  | 4.5 nM |
| O=C1c2ccccc2C(=O)N1CCCCCN1CCN(c2cccc(Cl)c2Cl)CC1 | 86.4 nM |  | 5.6 nM |
| O=C(NCCCCN1CCN(c2cccc(Cl)c2Cl)CC1)C1c2ccccc2-c2ccccc21 | 55.2 nM |  | 11.1 nM |
| O=C(NCCCN1CCN(c2cccc(Cl)c2Cl)CC1)c1cccc2c1-c1ccccc1C2=O | 153 nM |  | 43 nM |
| O=C(NCCCN1CCN(c2cccc(Cl)c2Cl)CC1)c1ccc2c(c1)Cc1ccccc1-2 | 396 nM |  | 199 nM |
| O=C(NCCCCCN1CCN(c2cccc(Cl)c2Cl)CC1)c1cccc2c1-c1ccccc1C2=O | 35.3 nM |  | 2 nM |
| O=C(NCCCCN1CCN(c2cccc(Cl)c2Cl)CC1)c1cc2cc(F)ccc2[nH]1 |  |  | 2.6 nM |
| O=C(NCCCN1CCN(c2cccc(Cl)c2Cl)CC1)C1c2ccccc2-c2ccccc21 | 250 nM |  | 34 nM |
| O=C(NCCCCN1CCN(c2cccc(Cl)c2Cl)CC1)c1ccc(-c2ccccn2)cc1 | 57.9 nM |  | 0.6 nM |
| O=C(NC/C=C/CN1CCN(c2cccc(Cl)c2Cl)CC1)c1cccc2c1-c1ccccc1C2 | 106 nM |  | 19 nM |
| O=C1c2ccccc2C(=O)N1CCCCN1CCN(c2cccc(Cl)c2Cl)CC1 | 102 nM |  | 4.8 nM |
| O=C(NCCCN1CCN(c2cccc(Cl)c2Cl)CC1)c1cccc2c1-c1ccccc1C2 | 376 nM |  | 139 nM |
| O=C(NC/C=C/CN1CCN(c2cccc(Cl)c2Cl)CC1)c1ccccc1 | 50.1 nM |  | 1.3 nM |
| O=C(NCC#CCN1CCN(c2cccc(Cl)c2Cl)CC1)c1ccc2c(c1)Cc1ccccc1-2 | 1000 nM |  | 214 nM |
| O=C(NCC#CCN1CCN(c2cccc(Cl)c2Cl)CC1)c1cccc2c1-c1ccccc1C2 | 891 nM |  | 1080 nM |
| Nc1ccc2c(c1)-c1c(cccc1C(=O)NCCCCN1CCN(c3cccc(Cl)c3Cl)CC1)C2 | 79.3 nM |  | 3.5 nM |
| O=C(NCC#CCN1CCN(c2cccc(Cl)c2Cl)CC1)c1ccccc1 | 1700 nM |  | 394 nM |
| O=C(NC/C=C\CN1CCN(c2cccc(Cl)c2Cl)CC1)c1ccccc1 | 20 nM |  | 4.9 nM |

Source: ChEMBL document CHEMBL1136084, “N-(4-[4-(2,3-dichlorophenyl)piperazin-1-yl]butyl, butenyl and butynyl)arylcarboxamides as novel dopamine D(3) receptor antagonists” (Bioorg Med Chem Lett, 2003)
